# Data as given in publication PMC7041945, “Misfolded proteins bind and activate death receptor 5 to trigger apoptosis during unresolved endoplasmic reticulum stress” (eLife, 2020).
# Legend:
# [1] = system: CHOP, BiP, and DR5 mRNA in HCT116 cells; assay: qPCR of UPR target transcripts (CHOP, BiP, DR5); type: cell-based, Homo sapiens
# Description: Cells were grown in 6-well plates and harvested with 0.5 ml of TRIzol reagent (Life Technologies) per manufacturer’s protocol to extract RNA. For cDNA synthesis, 500 ng of total RNA was reverse transcribed with 2 μl of the SuperScript VILO master mix (Life Technologies # 11755050) in a total reaction volume of 10 μl following the manufacturer’s protocol for reaction temperature and duration. The reverse transcription product was diluted to 200 μl with 10 mM Tris-HCl pH 8.2 and used at 1:100 dilution for subsequent RT-PCR reactions.
# PCR samples were prepared as described by manufacturer’s protocols from iQ SYBR Green Supermix (BioRad #17088800).
# For each experiment, qRT-PCR reactions were set up in triplicate and run using a CFX96 Real Time System (Bio-Rad). Quantitation cycles were determined with CFX Manager 3.0 software (Bio-Rad) and then normalized to GAPDH as an internal control.
# GFP (340+341) = assay: qPCR of GFP transcript (expression of GFP-tagged construct); type: cell-based; details: 24 hr, Rep 2
# [2] = 24 hr, Rep 2, relative to empty traffo, mean of 3 replicates
# [3] = 24 hr, Rep 2, relative to empty traffo, replicate 1
# [4] = 24 hr, Rep 2, relative to empty traffo, replicate 2
# [5] = 24 hr, Rep 2, relative to empty traffo, replicate 3
# [6] = HCT116, 100 nM for 24 hours, avg., norm to GAPDH
# [7] = HCT116, 100 nM for 24 hours, replicate 1
# [8] = HCT116, 100 nM for 24 hours, replicate 2
# [9] = HCT116, 100 nM for 24 hours, replicate 3
# [10] = HCT116, 100 nM for 24 hours, vs GAPDH, replicate 1
# [11] = HCT116, 100 nM for 24 hours, vs GAPDH, replicate 2
# [12] = HCT116, 100 nM for 24 hours, vs GAPDH, replicate 3
# [13] = HCT116, 100 nM Tg for 24 hours, mean of 3 replicates
# [14] = HCT116, 100 nM Tg for 24 hours, replicate 1
# [15] = HCT116, 100 nM Tg for 24 hours, replicate 2
# [16] = HCT116, 100 nM Tg for 24 hours, replicate 3
# [17] = qPCR Rep 2, WT MPZ GFP 1000 ng, or empty traffo + Tg, mean of 3
# [18] = qPCR Rep 2, WT MPZ GFP 1000 ng, or empty traffo + Tg, replicate 1
# [19] = qPCR Rep 2, WT MPZ GFP 1000 ng, or empty traffo + Tg, replicate 2
# [20] = qPCR Rep 2, WT MPZ GFP 1000 ng, or empty traffo + Tg, replicate 3
# [21] = qPCR Rep 2, WT MPZ GFP 1000 ng, or empty traffo + Tg, vs avg GAPDH, replicate 1
# [22] = qPCR Rep 2, WT MPZ GFP 1000 ng, or empty traffo + Tg, vs avg GAPDH, replicate 2
# [23] = qPCR Rep 2, WT MPZ GFP 1000 ng, or empty traffo + Tg, vs avg GAPDH, replicate 3
smiles,measurement,setting,value
"C/C=C(/C)C(=O)O[C@H]1C(C)=C2[C@H]([C@@H]1OC(=O)CCCCCCC)[C@@](C)(OC(C)=O)C[C@H](OC(=O)CCC)[C@@]1(O)[C@H]2OC(=O)[C@@]1(C)O [thapsigargin, reference compound]",avg. fold induction CHOP,[1]; [2],2.825
same,avg. fold induction DR5 total,[1]; [2],2.175
same,fold induction CHOP,[1]; [3],2.975
same,fold induction DR5 total,[1]; [3],2.222
same,fold induction CHOP,[1]; [4],2.927
same,fold induction DR5 total,[1]; [4],2.286
same,fold induction CHOP,[1]; [5],2.573
same,fold induction DR5 total,[1]; [5],2.0182
same,2^-(deltaCq) CHOP,"[1]; 24 hr, Rep 2, replicate 1",0.03423
same,2^-(deltaCq) DR5 total,"[1]; 24 hr, Rep 2, replicate 1",0.06479
same,Cq CHOP,"[1]; 24 hr, Rep 2, replicate 1",23.6206
same,Cq DR5 total,"[1]; 24 hr, Rep 2, replicate 1",22.7
same,"Cq(sample) - avg Cq(GAPDH), CHOP","[1]; 24 hr, Rep 2, replicate 1",4.869
same,"Cq(sample) - avg Cq(GAPDH), DR5 total","[1]; 24 hr, Rep 2, replicate 1",3.948
same,2^-(deltaCq) CHOP,"[1]; 24 hr, Rep 2, replicate 2",0.03367
same,2^-(deltaCq) DR5 total,"[1]; 24 hr, Rep 2, replicate 2",0.06665
same,Cq CHOP,"[1]; 24 hr, Rep 2, replicate 2",23.6444
same,Cq DR5 total,"[1]; 24 hr, Rep 2, replicate 2",22.6592
same,"Cq(sample) - avg Cq(GAPDH), CHOP","[1]; 24 hr, Rep 2, replicate 2",4.892
same,"Cq(sample) - avg Cq(GAPDH), DR5 total","[1]; 24 hr, Rep 2, replicate 2",3.9072
same,2^-(deltaCq) CHOP,"[1]; 24 hr, Rep 2, replicate 3",0.0296
same,2^-(deltaCq) DR5 total,"[1]; 24 hr, Rep 2, replicate 3",0.05885
same,Cq CHOP,"[1]; 24 hr, Rep 2, replicate 3",23.8304
same,Cq DR5 total,"[1]; 24 hr, Rep 2, replicate 3",22.839
same,"Cq(sample) - avg Cq(GAPDH), CHOP","[1]; 24 hr, Rep 2, replicate 3",5.078
same,"Cq(sample) - avg Cq(GAPDH), DR5 total","[1]; 24 hr, Rep 2, replicate 3",4.087
same,"avg. fold induction relative to empty traffo, BiP",[1]; [6],12.0843 fold
same,"avg. fold induction relative to empty traffo, CHOP",[1]; [6],7.5114 fold
same,"avg. fold induction relative to empty traffo, DR5 total",[1]; [6],5.041 fold
same,"fold induction relative to empty traffo, BiP",[1]; [7],11.9233 fold
same,"fold induction relative to empty traffo, CHOP",[1]; [7],7.102 fold
same,"fold induction relative to empty traffo, DR5 total",[1]; [7],5.4959 fold
same,"fold induction relative to empty traffo, BiP",[1]; [8],12.5755 fold
same,"fold induction relative to empty traffo, CHOP",[1]; [8],7.658 fold
same,"fold induction relative to empty traffo, DR5 total",[1]; [8],4.966 fold
same,"fold induction relative to empty traffo, BiP",[1]; [9],11.754 fold
same,"fold induction relative to empty traffo, CHOP",[1]; [9],7.775 fold
same,"fold induction relative to empty traffo, DR5 total",[1]; [9],4.661 fold
same,2^-(deltaCq) BiP,[1]; [10],1.038
same,2^-(deltaCq) CHOP,[1]; [10],0.07495
same,2^-(deltaCq) DR5 total,[1]; [10],0.08912
same,2^-(deltaCq) BiP,[1]; [11],1.095
same,2^-(deltaCq) CHOP,[1]; [11],0.08082
same,2^-(deltaCq) DR5 total,[1]; [11],0.08052
same,2^-(deltaCq) BiP,[1]; [12],1.023
same,2^-(deltaCq) CHOP,[1]; [12],0.08206
same,2^-(deltaCq) DR5 total,[1]; [12],0.07558
same,GAPDH avg. fold induction relative to empty traffo,[1]; [13],1.006
same,GFP avg. fold induction relative to empty traffo,[1]; [13],0.1103
same,ERO1alpha (386+387) avg. fold induction relative to empty traffo,"[1]; HCT116, 100 nM Tg for 24 hours, melt curves for these primers showed two peaks, mean of 3 replicates",0.8588
same,ERO1alpha (386+387) fold induction relative to empty traffo,"[1]; HCT116, 100 nM Tg for 24 hours, melt curves for these primers showed two peaks, replicate 1",0.8482
same,ERO1alpha (386+387) fold induction relative to empty traffo,"[1]; HCT116, 100 nM Tg for 24 hours, melt curves for these primers showed two peaks, replicate 2",0.8572
same,ERO1alpha (386+387) fold induction relative to empty traffo,"[1]; HCT116, 100 nM Tg for 24 hours, melt curves for these primers showed two peaks, replicate 3",0.8711
same,GADD34 (388+389) fold induction relative to empty traffo,[1]; [14],11.4671
same,GAPDH fold induction relative to empty traffo,[1]; [14],1.083
same,GFP fold induction relative to empty traffo,[1]; [14],0.1161
same,GADD34 (388+389) fold induction relative to empty traffo,[1]; [15],11.4954
same,GAPDH fold induction relative to empty traffo,[1]; [15],1.089
same,GFP fold induction relative to empty traffo,[1]; [15],0.1176
same,GADD34 (388+389) fold induction relative to empty traffo,[1]; [16],10.9924
same,GAPDH fold induction relative to empty traffo,[1]; [16],0.847
same,GFP fold induction relative to empty traffo,[1]; [16],0.09722
same,"avg. fold induction relative to WT MPZ DMSO, BiP",[1]; [17],6.727 fold
same,"avg. fold induction relative to WT MPZ DMSO, CHOP",[1]; [17],9.899 fold
same,"avg. fold induction relative to WT MPZ DMSO, DR5 total",[1]; [17],3.489 fold
same,"fold induction relative to WT MPZ DMSO, BiP",[1]; [18],6.3 fold
same,"fold induction relative to WT MPZ DMSO, CHOP",[1]; [18],10.9106 fold
same,"fold induction relative to WT MPZ DMSO, DR5 total",[1]; [18],3.205 fold
same,"fold induction relative to WT MPZ DMSO, BiP",[1]; [19],6.984 fold
same,"fold induction relative to WT MPZ DMSO, CHOP",[1]; [19],9.299 fold
same,"fold induction relative to WT MPZ DMSO, DR5 total",[1]; [19],3.841 fold
same,"fold induction relative to WT MPZ DMSO, BiP",[1]; [20],6.897 fold
same,"fold induction relative to WT MPZ DMSO, CHOP",[1]; [20],9.4871 fold
same,"fold induction relative to WT MPZ DMSO, DR5 total",[1]; [20],3.4208 fold
same,2^-(deltaCq) BiP,[1]; [21],1.043
same,2^-(deltaCq) CHOP,[1]; [21],0.04115
same,2^-(deltaCq) DR5 total,[1]; [21],0.04765
same,2^-(deltaCq) BiP,[1]; [22],1.156
same,2^-(deltaCq) CHOP,[1]; [22],0.03507
same,2^-(deltaCq) DR5 total,[1]; [22],0.05711
same,2^-(deltaCq) BiP,[1]; [23],1.142
same,2^-(deltaCq) CHOP,[1]; [23],0.03578
same,2^-(deltaCq) DR5 total,[1]; [23],0.05086
same,avg. fold induction GFP (340+341),"GFP (340+341); relative to empty traffo, mean of 3 replicates",0.3377
same,fold induction GFP (340+341),"GFP (340+341); relative to empty traffo, replicate 1",0.335
same,fold induction GFP (340+341),"GFP (340+341); relative to empty traffo, replicate 2",0.3372
same,fold induction GFP (340+341),"GFP (340+341); relative to empty traffo, replicate 3",0.341
same,2^-(deltaCq) GFP (340+341),GFP (340+341); replicate 1,5.66e-5
same,Cq GFP (340+341),GFP (340+341); replicate 1,32.8608
same,"Cq(sample) - avg Cq(GAPDH), GFP (340+341)",GFP (340+341); replicate 1,14.1088
same,2^-(deltaCq) GFP (340+341),GFP (340+341); replicate 2,5.698e-5
same,Cq GFP (340+341),GFP (340+341); replicate 2,32.8514
same,"Cq(sample) - avg Cq(GAPDH), GFP (340+341)",GFP (340+341); replicate 2,14.0993
same,2^-(deltaCq) GFP (340+341),GFP (340+341); replicate 3,5.761e-5
same,Cq GFP (340+341),GFP (340+341); replicate 3,32.8353
same,"Cq(sample) - avg Cq(GAPDH), GFP (340+341)",GFP (340+341); replicate 3,14.0832
